Assays:
Type in all cases: biochemical
Abl (h) = Abl (h) (Homo sapiens, UniProt P00519); experiment: Abl human kinase assay (glass-fiber filter); settings: test concentration of 10^−6M; for inhibition at 1 µM: read-out: C1 score (inhibition of Abl human)
CSK (h) = CSK (h) (Homo sapiens, UniProt P41240); experiment: CSK human kinase assay (glass-fiber filter); settings: test concentration of 10^−6M; for inhibition at 1 µM: read-out: C2 score (inhibition of CSK human)
Outline: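 Radiometric filter-binding assay: human CSK (5-10 mU) with 0.1 mg/ml poly(Glu, Tyr) 4:1 and [γ-33P]-ATP (concentration as required) in 50 mM Tris pH 7.5, 10 mM MnCl2, 10 mM MgAcetate. Incubated 40 minutes at room temperature, stopped with phosphoric acid; substrate-bound 33P counted.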

EGFR (h) = EGFR (h) (Homo sapiens, UniProt P00533); experiment: EGFR human kinase assay (glass-fiber filter); settings: test concentration of 10^−6M; for inhibition at 1 µM: read-out: C4 score (inhibition of EGFR human)
Outline: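 Human EGFR (5-10 mU) phosphorylated 0.1 mg/ml poly(Glu, Tyr) 4:1 in 8 mM MOPS pH 7.0, 0.2 mM EDTA, 10 mM MnCl2, 10 mM MgAcetate with [γ-33P]ATP at unspecified concentration. Incubation lasted 40 minutes at room temperature, was stopped with phosphoric acid, and filter-bound 33P was counted by scintillation.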

Fes (h) = Fes (h) (Homo sapiens, UniProt P07332); experiment: Fes human kinase assay (glass-fiber filter); settings: test concentration of 10^−6M; for inhibition at 1 µM: read-out: C4 score (inhibition of Fes human)
Fes (h), sequence (P07332 whole entry): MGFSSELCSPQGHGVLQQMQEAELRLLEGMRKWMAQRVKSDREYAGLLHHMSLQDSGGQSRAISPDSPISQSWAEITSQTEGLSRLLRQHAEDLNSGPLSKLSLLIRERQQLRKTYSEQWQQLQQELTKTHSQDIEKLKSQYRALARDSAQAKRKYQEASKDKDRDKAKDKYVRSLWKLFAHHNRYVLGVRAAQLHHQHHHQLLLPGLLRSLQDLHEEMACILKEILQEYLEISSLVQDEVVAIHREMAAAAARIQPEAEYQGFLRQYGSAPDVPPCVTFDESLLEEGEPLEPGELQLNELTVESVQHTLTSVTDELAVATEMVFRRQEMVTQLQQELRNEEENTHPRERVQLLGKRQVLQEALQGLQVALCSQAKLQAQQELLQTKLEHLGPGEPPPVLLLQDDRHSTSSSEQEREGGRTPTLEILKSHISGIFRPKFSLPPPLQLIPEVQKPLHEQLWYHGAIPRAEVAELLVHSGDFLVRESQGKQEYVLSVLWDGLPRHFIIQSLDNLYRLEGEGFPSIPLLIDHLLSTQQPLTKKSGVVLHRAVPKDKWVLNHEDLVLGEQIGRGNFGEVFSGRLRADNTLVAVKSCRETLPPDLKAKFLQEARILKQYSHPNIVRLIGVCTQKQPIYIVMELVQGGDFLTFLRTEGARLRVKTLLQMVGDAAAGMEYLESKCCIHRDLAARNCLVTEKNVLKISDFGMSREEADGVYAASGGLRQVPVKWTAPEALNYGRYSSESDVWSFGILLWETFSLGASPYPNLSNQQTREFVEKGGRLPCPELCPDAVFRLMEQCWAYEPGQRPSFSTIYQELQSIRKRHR
Outline: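 Human Fes (5–10 mU) was incubated with 0.1 mg/ml poly(Glu,Tyr) 4:1 in 8 mM MOPS pH 7.0, 0.2 mM EDTA, 10 mM Mg acetate and [γ-33P]ATP for 40 min at room temperature. The reaction was stopped with phosphoric acid, and substrate phosphorylation was quantified by filter binding and scintillation counting.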

Flt3 (h) = Flt3 (h) (Homo sapiens, UniProt P36888); experiment: Flt3 human kinase assay (glass-fiber filter); settings: test concentration of 10^−6M; for inhibition at 1 µM: read-out: C6 score (inhibition of Flt3 human)
Flt3 (h), sequence (P36888 27-993): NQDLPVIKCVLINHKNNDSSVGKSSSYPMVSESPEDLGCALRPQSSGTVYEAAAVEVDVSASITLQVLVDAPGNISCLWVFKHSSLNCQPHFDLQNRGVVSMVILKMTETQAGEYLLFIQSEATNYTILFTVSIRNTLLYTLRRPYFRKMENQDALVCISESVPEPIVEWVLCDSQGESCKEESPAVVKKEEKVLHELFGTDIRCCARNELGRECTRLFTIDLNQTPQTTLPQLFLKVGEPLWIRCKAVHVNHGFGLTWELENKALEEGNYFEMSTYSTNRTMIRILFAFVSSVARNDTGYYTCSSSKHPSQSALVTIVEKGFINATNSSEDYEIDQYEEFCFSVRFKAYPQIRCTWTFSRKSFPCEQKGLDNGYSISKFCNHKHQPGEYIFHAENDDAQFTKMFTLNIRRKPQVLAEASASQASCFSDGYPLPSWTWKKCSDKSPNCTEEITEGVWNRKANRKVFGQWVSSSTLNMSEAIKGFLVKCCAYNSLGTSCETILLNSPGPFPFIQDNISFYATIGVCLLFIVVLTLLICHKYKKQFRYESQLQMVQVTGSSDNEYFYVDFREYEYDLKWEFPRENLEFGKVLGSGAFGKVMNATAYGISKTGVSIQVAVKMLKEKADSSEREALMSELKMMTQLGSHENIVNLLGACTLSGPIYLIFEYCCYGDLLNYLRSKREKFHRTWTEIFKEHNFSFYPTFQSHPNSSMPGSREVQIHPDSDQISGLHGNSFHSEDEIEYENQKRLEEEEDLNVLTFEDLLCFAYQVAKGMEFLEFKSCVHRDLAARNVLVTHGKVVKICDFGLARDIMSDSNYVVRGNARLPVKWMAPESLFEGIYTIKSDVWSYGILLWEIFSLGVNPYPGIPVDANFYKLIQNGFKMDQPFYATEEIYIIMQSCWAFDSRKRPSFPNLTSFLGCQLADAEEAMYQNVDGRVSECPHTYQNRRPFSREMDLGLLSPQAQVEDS
Outline: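 Human Flt3 (5-10 mU) with 50 μM peptide substrate in 8 mM MOPS pH 7.0, 0.2 mM EDTA, 10 mM Mg acetate and [γ-33P]ATP (concentration as required), 40 min at room temperature. Reaction stopped with phosphoric acid; substrate 33P incorporation counted on P30 glass-fiber filter.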

Fms (h) = Fms (h) (Homo sapiens, UniProt P07333); experiment: Fms human kinase assay (glass-fiber filter); settings: test concentration of 10^−6M; for inhibition at 1 µM: read-out: C7 score (inhibition of Fms human)
Fms (h), sequence (P07333 20-972): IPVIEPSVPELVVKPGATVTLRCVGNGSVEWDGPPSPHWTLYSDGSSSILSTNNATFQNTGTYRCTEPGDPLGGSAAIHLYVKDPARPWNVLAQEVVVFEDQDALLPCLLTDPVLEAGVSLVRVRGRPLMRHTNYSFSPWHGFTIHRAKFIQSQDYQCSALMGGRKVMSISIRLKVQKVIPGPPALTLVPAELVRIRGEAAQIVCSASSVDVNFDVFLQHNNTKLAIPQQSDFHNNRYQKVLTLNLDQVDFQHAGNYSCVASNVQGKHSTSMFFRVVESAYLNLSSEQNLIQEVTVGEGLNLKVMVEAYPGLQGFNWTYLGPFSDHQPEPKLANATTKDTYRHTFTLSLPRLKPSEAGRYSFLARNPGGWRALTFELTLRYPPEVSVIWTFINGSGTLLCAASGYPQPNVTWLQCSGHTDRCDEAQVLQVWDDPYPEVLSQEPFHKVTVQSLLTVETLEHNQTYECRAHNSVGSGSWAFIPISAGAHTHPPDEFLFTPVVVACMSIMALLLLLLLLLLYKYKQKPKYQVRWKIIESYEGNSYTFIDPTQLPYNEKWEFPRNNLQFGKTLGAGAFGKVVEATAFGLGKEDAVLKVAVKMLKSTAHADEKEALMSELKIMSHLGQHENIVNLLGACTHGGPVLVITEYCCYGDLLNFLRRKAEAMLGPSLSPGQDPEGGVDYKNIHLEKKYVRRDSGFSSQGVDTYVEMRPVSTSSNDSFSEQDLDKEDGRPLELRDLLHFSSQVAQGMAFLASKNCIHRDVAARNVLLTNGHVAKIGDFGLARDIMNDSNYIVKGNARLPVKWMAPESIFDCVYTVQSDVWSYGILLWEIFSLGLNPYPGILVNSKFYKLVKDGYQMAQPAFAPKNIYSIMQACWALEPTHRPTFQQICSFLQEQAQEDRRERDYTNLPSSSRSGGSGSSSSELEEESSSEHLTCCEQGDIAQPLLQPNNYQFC
Outline: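 Radiometric filter-binding assay: Fms (5-10 mU) with 250 μM peptide substrate and [γ-33P]ATP in 8 mM MOPS pH 7.0, 10 mM Mg acetate, 40 min at room temperature. Reaction stopped with phosphoric acid; substrate-bound 33P counted on P30 filtermat.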

Lck (h) = Lck (h) (Homo sapiens, UniProt P06239); experiment: Lck human kinase assay (glass-fiber filter); settings: test concentration of 10^−6M; for inhibition at 1 µM: read-out: C9 score (inhibition of Lck human)
Lck (h), sequence (P06239 whole entry): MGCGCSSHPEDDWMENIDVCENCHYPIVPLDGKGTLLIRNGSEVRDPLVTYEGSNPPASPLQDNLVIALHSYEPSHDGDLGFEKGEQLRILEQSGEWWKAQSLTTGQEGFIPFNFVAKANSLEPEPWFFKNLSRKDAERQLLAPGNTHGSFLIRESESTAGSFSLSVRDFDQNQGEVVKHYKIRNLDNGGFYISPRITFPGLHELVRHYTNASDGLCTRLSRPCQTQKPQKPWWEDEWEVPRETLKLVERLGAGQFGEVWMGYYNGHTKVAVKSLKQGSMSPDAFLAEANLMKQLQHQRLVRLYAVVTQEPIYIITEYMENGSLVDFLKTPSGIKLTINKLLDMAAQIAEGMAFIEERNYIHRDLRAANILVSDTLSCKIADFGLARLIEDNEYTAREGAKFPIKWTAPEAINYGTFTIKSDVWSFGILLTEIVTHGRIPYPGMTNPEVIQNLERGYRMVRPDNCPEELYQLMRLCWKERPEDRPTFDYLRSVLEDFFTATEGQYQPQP
Outline: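 Kinase activity measured as transfer of (^33P) from radiolabeled MgATP to substrate, captured on P30 glass-fiber filtermat, washed in 75 mM phosphoric acid and methanol, then scintillation counted.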

Abl (h), sequence (P00519 whole entry): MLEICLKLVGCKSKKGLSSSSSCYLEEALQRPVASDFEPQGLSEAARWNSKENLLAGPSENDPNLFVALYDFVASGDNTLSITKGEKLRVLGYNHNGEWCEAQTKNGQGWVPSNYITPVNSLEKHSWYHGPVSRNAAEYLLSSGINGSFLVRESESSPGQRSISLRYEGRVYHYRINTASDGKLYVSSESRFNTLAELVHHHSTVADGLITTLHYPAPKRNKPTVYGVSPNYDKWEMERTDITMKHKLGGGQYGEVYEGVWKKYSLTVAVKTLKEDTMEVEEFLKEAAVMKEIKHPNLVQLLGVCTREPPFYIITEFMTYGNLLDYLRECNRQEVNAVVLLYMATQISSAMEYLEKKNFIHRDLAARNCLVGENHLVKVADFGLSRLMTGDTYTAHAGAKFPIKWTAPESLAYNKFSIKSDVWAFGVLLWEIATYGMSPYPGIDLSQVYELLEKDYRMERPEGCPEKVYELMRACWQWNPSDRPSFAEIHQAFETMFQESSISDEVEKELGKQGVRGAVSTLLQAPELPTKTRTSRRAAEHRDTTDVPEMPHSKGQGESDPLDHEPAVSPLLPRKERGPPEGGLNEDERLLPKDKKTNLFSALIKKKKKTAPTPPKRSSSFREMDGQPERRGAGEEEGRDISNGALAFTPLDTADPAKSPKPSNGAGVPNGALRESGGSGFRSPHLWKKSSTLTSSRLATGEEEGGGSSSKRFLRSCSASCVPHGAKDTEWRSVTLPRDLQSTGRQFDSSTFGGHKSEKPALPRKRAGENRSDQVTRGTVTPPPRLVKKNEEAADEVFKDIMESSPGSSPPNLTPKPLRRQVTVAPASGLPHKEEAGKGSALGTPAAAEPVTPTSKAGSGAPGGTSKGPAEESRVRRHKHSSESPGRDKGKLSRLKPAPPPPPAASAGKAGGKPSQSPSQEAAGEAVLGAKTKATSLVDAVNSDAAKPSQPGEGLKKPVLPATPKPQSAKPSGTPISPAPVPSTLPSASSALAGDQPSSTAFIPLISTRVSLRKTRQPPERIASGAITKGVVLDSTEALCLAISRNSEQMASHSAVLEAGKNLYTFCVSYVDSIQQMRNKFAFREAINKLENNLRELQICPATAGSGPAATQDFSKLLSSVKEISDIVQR

| Compound | inhibition at 1 µM (Abl (h)) [%] | inhibition at 1 µM (CSK (h)) [%] | inhibition at 1 µM (EGFR (h)) [%] | inhibition at 1 µM (Fes (h)) [%] | inhibition at 1 µM (Flt3 (h)) [%] | inhibition at 1 µM (Fms (h)) [%] | inhibition at 1 µM (Lck (h)) [%] | C1 score (inhibition of Abl human) (Abl (h)) | C2 score (inhibition of CSK human) (CSK (h)) | C4 score (inhibition of EGFR human) (EGFR (h)) | C4 score (inhibition of Fes human) (Fes (h)) | C6 score (inhibition of Flt3 human) (Flt3 (h)) | C7 score (inhibition of Fms human) (Fms (h)) | C9 score (inhibition of Lck human) (Lck (h)) |
| --- | --- | --- | --- | --- | --- | --- | --- | --- | --- | --- | --- | --- | --- | --- |
| 1H,7H-2,6: 12,8-dimetheno-14H-13,19,1,3,5,7-benzodioxatetraazacycloheneicosine, 22-bromo-15,16,17,18-tetrahydro-11-methoxy- [Compound 35] |  |  |  |  |  |  |  | 4 (Score 4=>80% inhibition) | 1 (Score 1=10-30% inhibition) | 2 (Score 2=30-60% inhibition) | 1 (Score 1=10-30% inhibition) | 2 (Score 2=30-60% inhibition) | 2 (Score 2=30-60% inhibition) | 2 (Score 2=30-60% inhibition) |
| 12,8-metheno-6,2-nitrilo-7H-13,1,5,7,16,19-benzoxapentaazacyclodocosine-3-carbonitrile, 23-chloro-1,14,15,16,17,18,19,20-octahydro-11-methoxy-19-methyl-17-oxo- [Compound 32] |  |  |  |  |  |  |  | 3 (Score 3=60-80% inhibition) | 1 (Score 1=10-30% inhibition) | 4 (Score 4=>80% inhibition) | 4 (Score 4=>80% inhibition) | 4 (Score 4=>80% inhibition) | 1 (Score 1=10-30% inhibition) | 4 (Score 4=>80% inhibition) |
| N#Cc1cnc2nc1Nc1cccc(c1)OCC(=O)NCCCOc1cccc(c1)N2 [Compound 25, 14,21-dioxa-2,4,8,17,28-pentaazatetracyclo[20.3.1.1~3,7~.1~9,13~]octacosa-1(26),3,5,7(28),9,11,13(27),22,24-nonaene-6-carbonitrile, 16-oxo-] | 10 to 30 | 30 to 60 | 10 to 30 | 60 to 80 | > 80 | 30 to 60 | 30 to 60 |  |  |  |  |  |  |  |
| N#Cc1cnc2nc1Nc1cccc(c1)OCC(=O)NCCCCOc1cccc(c1)N2 [Compound 26, 14,22-dioxa-2,4,8,17,29-pentaazatetracyclo[21.3.1.1~3,7~.1~9,13~]nonacosa-1(27),3,5,7(29),9,11,13(28),23,25-nonaene-6-carbonitrile, 16-oxo-] | 10 to 30 | 10 to 30 | 10 to 30 | 30 to 60 | 60 to 80 | 30 to 60 | 10 to 30 |  |  |  |  |  |  |  |
| N#Cc1cnc2nc1Nc1cccc(c1)OCCCNC(=O)COc1cccc(c1)N2 [Compound 28, 14,21-dioxa-2,4,8,18,28-pentaazatetracyclo[20.3.1.1~3,7~.1~9,13~]octacosa-1(26),3,5,7(28),9,11,13(27),22,24-nonaene-6-carbonitrile, 19-oxo-] | 10 to 30 | 10 to 30 |  | 10 to 30 | 60 to 80 | 30 to 60 | 30 to 60 |  |  |  |  |  |  |  |
| COc1ccc2cc1OCCCCCCOc1ccc(Br)cc1Nc1cc(ncn1)N2 [Compound 36, 1H,7H-2,6: 12,8-dimetheno-13,20,1,3,5,7-benzodioxatetraazacyclodocosine, 23-bromo-14,15,16,17,18,19-hexahydro-11-methoxy-] |  |  |  |  |  |  |  | 2 (Score 2=30-60% inhibition) | 1 (Score 1=10-30% inhibition) | 4 (Score 4=>80% inhibition) | 1 (Score 1=10-30% inhibition) | 1 (Score 1=10-30% inhibition) | 1 (Score 1=10-30% inhibition) | 2 (Score 2=30-60% inhibition) |
| COc1ccc2cc1OCCCCCCCOc1ccc(Br)cc1Nc1cc(ncn1)N2 [Compound 37, 1H,7H-2,6: 12,8-dimetheno-14H-13,21,1,3,5,7-benzodioxatetraazacyclotricosine, 24-bromo-15,16,17,18,19,20-hexahydro-11-methoxy-] |  |  |  |  |  |  |  | 2 (Score 2=30-60% inhibition) | 1 (Score 1=10-30% inhibition) | 3 (Score 3=60-80% inhibition) | 1 (Score 1=10-30% inhibition) |  | 1 (Score 1=10-30% inhibition) | 2 (Score 2=30-60% inhibition) |

More lines, main results first:

| inhibition at 1 µM (Abl (h)) [%] | inhibition at 1 µM (CSK (h)) [%] | inhibition at 1 µM (EGFR (h)) [%] | inhibition at 1 µM (Fes (h)) [%] | inhibition at 1 µM (Flt3 (h)) [%] | inhibition at 1 µM (Fms (h)) [%] | inhibition at 1 µM (Lck (h)) [%] | Compound | C1 score (inhibition of Abl human) (Abl (h)) | C2 score (inhibition of CSK human) (CSK (h)) | C4 score (inhibition of EGFR human) (EGFR (h)) | C4 score (inhibition of Fes human) (Fes (h)) | C6 score (inhibition of Flt3 human) (Flt3 (h)) | C7 score (inhibition of Fms human) (Fms (h)) | C9 score (inhibition of Lck human) (Lck (h)) |
| --- | --- | --- | --- | --- | --- | --- | --- | --- | --- | --- | --- | --- | --- | --- |
|  | 10 to 30 | 30 to 60 | 10 to 30 | 10 to 30 | 10 to 30 | 10 to 30 | COc1ccc2c(c1)OCCCCCCOc1ccc(Cl)cc1Nc1cc(ncn1)N2 [Compound 34, 11H-6,10-metheno-5H-dibenzo[b,k][1,13,4,6,8,10]dioxatetraazacyclononadecine, 13-chloro-17,18,19,20,21,22-hexahydro-2-methoxy-] |  |  |  |  |  |  |  |
| > 80 | 30 to 60 | > 80 | 60 to 80 |  |  | > 80 | COc1ccc2cc1OCCNC(=O)CNC(=O)Cc1ccc(Cl)cc1Nc1cc(ncn1)N2 [Compound 103, 1H,7H-6,2:12,8-dimetheno-13,1,3,5,7,16,19-benzoxahexaazacyclotricosine-17,20(14H)-dione, 24-chloro-15,16,18,19,21-pentahydro-11-methoxy-] |  |  |  |  |  |  |  |
| > 80 | 30 to 60 | > 80 | 60 to 80 |  | 10 to 30 | > 80 | COc1ccc2cc1OCCCNC(=O)C(C)(C)NC(=O)Cc1ccc(Cl)cc1Nc1cc(ncn1)N2 [Compound 105, 6,2:8,12-dimetheno-7H-13,1,3,5,7,17,20-benzoxahexaazacyclotetracosine-18,21-dione, 25-chloro-1,14,15,16,17,19,20,22-octahydro-11-methoxy-19,19-dimethyl-] |  |  |  |  |  |  |  |
| > 80 | 60 to 80 | > 80 | > 80 | 10 to 30 | 10 to 30 | > 80 | CC1(C)NC(=O)Cc2ccc(Cl)cc2Nc2cc(ncn2)Nc2ccc(OCCCN3CCOCC3)c(c2)OCCNC1=O [Compound 106, 1H,7H-6,2:8,12-dimetheno-13,1,3,5,7,16,19-benzoxahexaazacyclotricosine-17,20(14H)-dione, 24-chloro-15,16,18,19,21-pentahydro-18,18-dimethyl-11-[3-(4-morpholinyl)propoxy]-] |  |  |  |  |  |  |  |

— patent publication US8148388B2, “2,4 (4,6) pyrimidine derivatives” (Janssen Pharmaceutica, N.V., priority 2004, dated 2012)
